# From patent US9365489B2, “Nitrooxy alkanoic acids and derivatives thereof in feed for reducing methane emission in ruminants, and/or to improve ruminant performance” (priority 2009, dated 2016)
# How the values were obtained:
# [1] = tested on: methanogenesis in rumen liquor; test: In vitro test for methane production (modified Hohenheim Forage value Test); conditions: 8 h, 39° C., average of two experiments, vs control
# Experimental: A modified version of the “Hohenheim Forage value Test (HFT)” was used for testing the effect of specific compounds on the rumen functions mimicked by this in-vitro system.
# Feed is given into a syringe with a composition of rumen liquor and an appropriate mixture of buffers. The solution is incubated at 39° C. After 8 hours the quantity (and composition) of methane produced is measured and put into a formula for conversion.
# • 6.2 g potassium dihydrogen phosphate (KH2PO4) • 0.6 g magnesium sulfate heptahydrate (MgSO4*7H2O) • 9 ml concentrated phosphoric acid (1 mol/l) • dissolved in distilled water to 1 l (pH about 1.6) Buffer Solution: • 35.0 g sodium hydrogen carbonate (NaHCO3) • 4.0 g ammonium hydrogen carbonate ((NH4)HCO3) • dissolved in distilled water to 1 l Trace Element Solution: • 13.2 g calcium chloride dihydrate (CaCl2*2H2O) • 10.0 g manganese(II) chloride tetrahydrate (MnCl2*4H2O) • 1.0 g cobalt(II) chloride hexahydrate (CoCl2*6H2O) • 8.0 g iron(III) chloride (FeCl3*6H2O) • dissolved in distilled water to 100 ml Sodium Salt Solution: • 100 mg sodium salt • dissolved in distilled water to 100 ml Reduction Solution: • first 3 ml sodium hydroxide (c=1 mol/l), then 427.5 mg sodium sulfide hydrate (Na2S*H2O) are added to 71.25 ml H2O • solution must be prepared shortly before it is added to the medium solution Procedure: Sample Weighing: • The feed stuff is sieved to 1 mm—usually TMR (44% concentrate, 6% hay, 37% maize silage and 13% grass silage)—and weighed exactly into 64 syringes. 4 of these syringes are the substrate controls, which display the gas production without the effect of the tested compounds. 4 other syringes are positive control, in which bromoethane sulfonate has been added to 0.1 mM. When needed, 4 syringes contain a carrier control (if the test compounds need a carrier). The remaining syringes contain the test substances, by groups of 4 syringes. Preparation of the Medium Solution:
# The components are mixed in a Woulff bottle in following order: • 711 ml water • 0.18 ml trace element solution • 355.5 ml buffer solution • 355.5 ml mass element solution • The completed solution is warmed up to 39° C. followed by the addition of 1.83 ml sodium salt solution and the addition of reduction solution at 36° C. The rumen liquor is added, when the indicator turns colourless. Extraction of the Rumen Liquor: • 750 ml of rumen liquor are added to approximately 1,400 ml of medium solution under continued agitation and CO2-gassing. Filling the Syringes, Incubation and Determining Gas Volumes and VFA Values: • The diluted rumen fluid (24 ml) is added to the glass syringe. The syringes are then incubated for 8 hours at 39° C. under gentle agitation. After 8 hours, the volume of gas produced is measured, and the percentage of methane in the gas phase is determined by gas chromatography. Results
# The food fermented was artificial TMR (44% concentrate, 6% hay, 37% maize silage and 13% grass silage). The compounds produced as described in examples 3 to 20 were added to the fermentation syringes to a concentration of 2 to 0.01% of dry matter (DM).
# [2] = Stability of the isolated compound (1H NMR); format: physicochemical; conditions: for degradation on storage: after 1 week at room temperature, repurified compound; for degradation on drying (1H NMR): dried at 60° C. under reduced pressure for 18 hours
# Experimental: The final compound was dried at 60° C. under reduced pressure for 18 hours. […] The degraded compound was adsorbed on silica gel and purified by flash chromatography [Biotage®, dichloromethane/methanol 100/0→98/2 (15CV), 98/2 (4CV)] affording compound 3 as a light yellow liquid (0.59 g, yield=33%).
# The final compound was dried at 60° C. under reduced pressure for 18 hours. […] The degraded compound was adsorbed on silica gel and purified by flash chromatography [Biotage®, dichloromethane/methanol 100/0→98/2 (12CV), 98/2 (6CV)] affording compound 3 as a white solid (0.90 g, yield=70%).
Structure (SMILES),effect on methanogenesis (%) ([1]; 0.05% DM),effect on methanogenesis (%) ([1]; 0.1% DM),effect on methanogenesis (%) ([1]; 0.01% DM),effect on methanogenesis (%) ([1]; 0.5% DM),effect on methanogenesis (%) ([1]; 2% DM),effect on methanogenesis (%) ([1]; 1% DM),degradation on storage [2],degradation on drying (1H NMR) [2],effect on methanogenesis (%) ([1]; 0.25% DM)
CCOC(=O)CO[N+](=O)[O-],−1,−1,,,,,,,
COC(=O)CCO[N+](=O)[O-],−64,,−12,−100,−100,,,,
O=C(O)CCO[N+](=O)[O-],−98,−100,−8,−100,−100,,,,
CCOC(=O)C(C)O[N+](=O)[O-] (stereo not shown),−2,,,−33,−100,,,,
CCOC(=O)CCCO[N+](=O)[O-],−55,−82,−6,−100,−100,,,,
O=C(O)CCCO[N+](=O)[O-],,,,,2,,,,
CCOC(=O)CC(C)O[N+](=O)[O-] (stereo not shown),−17,,,−100,−100,,,,
CCOC(=O)CCCCO[N+](=O)[O-],−87,,−28,−100,−100,,,,
O=C(O)CCCCO[N+](=O)[O-],−100,−100,−23,−100,−100,,,,
CC(C)(CO[N+](=O)[O-])C(=O)O,,,,−49,−100,,,,
CCOC(=O)CCCCCO[N+](=O)[O-],−78,−100,−3,,,,,,
O=C(O)CCCCCO[N+](=O)[O-],−99,−100,−10,,,,,,
CCOC(=O)CCCCCCCO[N+](=O)[O-],−96,−99,−12,,,,,,
O=C(O)CCCCCCCO[N+](=O)[O-],−76,−100,−7,,,,,,
CCOC(=O)CCCCCCCCCCO[N+](=O)[O-],−48,−99,−8,,,,,,
O=C(O)CCCCCCCCCCO[N+](=O)[O-],−52,−99,−13,,,,,,
CCOC(=O)C1CCC(O[N+](=O)[O-])CC1 (stereo not shown),−2,−88,,,,−98,,,
"CNC(=O)CCCCO[N+](=O)[O-] [Example 18, 5-Nitrooxy-pentanoic acid methylamide]",,,,,,,No further degradation was observed,Degradation was observed,
"NC(=O)CCCCO[N+](=O)[O-] [Example 20, 5-Nitrooxy-pentanoic acid amide]",,,,,,,No further degradation was observed,Degradation was observed,
"O=[N+]([O-])[O-].[Na+] [Na NO3, reference compound]",,,,−2,−23,,,,
CCOC(=O)CCO[N+](=O)[O-] [drawing 19],−18,−63,,−100,−100,−100,,,−100
NC(=O)CCCCO[N+](=O)[O-] [drawing 36],,−99,−2,,,−98,,,
CNC(=O)CCCCO[N+](=O)[O-] [drawing 37],,−100,−2,,,−98,,,
